{"source": "patent EP0457908A1", "about": "“HYDROCHLORIDE 2,3,3a,4,5,6-HEXAHYDRO-8-CYCLOHEXYL-1H-PYRAZINO (3,2,1-j,k)CARBAZOL, METHOD OF OBTAINING IT AND A PHARMACEUTICAL PREPARATION OF ANTIDEPRESSIVE ACTION BASED ON IT” (priority 1989, dated 1991)", "format_in_all_cases": "in vivo", "key": {"white mice": {"system": "white mice", "assay": "Porsolt's swimming behaviour test (duration of immobilization)", "details": "for Duration of immobilization, %: distilled water = 100", "method": "The effect of the compound according to the present invention on the duration of immobilization in Porsolt's swimming behaviour test (Porsolt et al., 1977) in experiments on white mice of both sexes with a mass of 16-18 g. […] Sixty minutes after the last (or a single) administration of the preparations, the mice were placed into cylinders (10 cm diameter, 25 cm height) filled with water to 6 cm. The temperature of water was 21-22 °C. […] The number and duration of all stops in swimming (immobilization) over the observation period were recorded."}, "white rats": {"system": "white rats", "assay": "Stereotypy induced by d,l-amphetamine", "details": "distilled water = 100", "method": "To evaluate the influence on stereotypy, the experiments were carried out on white rats of both sexes with a mass of 100-150 g. […] Stereotypy was assessed in points of from to 3 (after Janssen et al., 1967)."}, "[1]": {"assay": "Overall comparison of pharmacological parameters with pyrazidol", "details": "certain pharmacological parameters"}, "[2]": {"details": "5-days' administration, 1.0 mg/kg orally (dose from row order)"}, "[3]": {"details": "5-days' administration, 2.5 mg/kg orally (dose from row order)"}, "[4]": {"details": "5-days' administration, 5.0 mg/kg orally (dose from row order)"}, "[5]": {"details": "18-days' administration, 2.5 mg/kg orally (dose from row order)"}, "[6]": {"details": "18-days' administration, 5.0 mg/kg orally (dose from row order)"}, "[7]": {"details": "single administration, 1.0 mg/kg orally"}, "[8]": {"details": "single administration, 2.5 mg/kg orally"}, "[9]": {"details": "single administration, 5.0 mg/kg orally"}}}
{"substance": "2,3,3a,4,5,6-hexahydro-8-cyclohexyl-1H-pyrazino-(3,2,1-j,k)-carbazole hydrochloride [Compound of the present invention]", "values": [{"measurement": "Duration of immobilization, Seconds, M±m", "setting": "white mice; [2]", "value": "102 ± 8.1", "unit": "s"}, {"measurement": "Duration of immobilization, %", "setting": "white mice; [2]", "value": 61, "unit": "%"}, {"measurement": "Duration of immobilization, Seconds, M±m", "setting": "white mice; [3]", "value": "102 ± 6.1", "unit": "s"}, {"measurement": "Duration of immobilization, %", "setting": "white mice; [3]", "value": 61, "unit": "%"}, {"measurement": "Duration of immobilization, Seconds, M±m", "setting": "white mice; [4]", "value": "88 ± 5.2", "unit": "s"}, {"measurement": "Duration of immobilization, %", "setting": "white mice; [4]", "value": 53, "unit": "%"}, {"measurement": "Duration of immobilization, %", "setting": "white mice; 18-days' administration, 1.0 mg/kg orally (dose from row order)", "value": 58, "unit": "%"}, {"measurement": "Duration of immobilization, Seconds, M±m", "setting": "white mice; [5]", "value": "96 ± 11.0", "unit": "s"}, {"measurement": "Duration of immobilization, %", "setting": "white mice; [5]", "value": 52, "unit": "%"}, {"measurement": "Duration of immobilization, Seconds, M±m", "setting": "white mice; [6]", "value": "75 ± 9.8", "unit": "s"}, {"measurement": "Duration of immobilization, %", "setting": "white mice; [6]", "value": 41, "unit": "%"}, {"measurement": "active in doses lower than those of imipramine and pyrazidol", "setting": "white mice; Porsolt's test, mice, oral", "value": 10, "unit": "times"}, {"measurement": "Duration of immobilization, Seconds, M±m", "setting": "white mice; [7]", "value": "145 ± 10.4", "unit": "s"}, {"measurement": "Duration of immobilization, %", "setting": "white mice; [7]", "value": 92, "unit": "%"}, {"measurement": "Duration of immobilization, Seconds, M±m", "setting": "white mice; [8]", "value": "111 ± 9.9", "unit": "s"}, {"measurement": "Duration of immobilization, %", "setting": "white mice; [8]", "value": 69, "unit": "%"}, {"measurement": "Duration of immobilization, Seconds, M±m", "setting": "white mice; [9]", "value": "105 ± 8.1", "unit": "s"}, {"measurement": "Duration of immobilization, %", "setting": "white mice; [9]", "value": 63, "unit": "%"}, {"measurement": "Stereotypy (tolal, for 4 measurements for 4 hours after hypodermal administration of d,l-amphetamine), %", "setting": "white rats; oral dose 2.5 mg/kg", "value": 145, "unit": "%"}, {"measurement": "Stereotypy (tolal, for 4 measurements for 4 hours after hypodermal administration of d,l-amphetamine), %", "setting": "white rats; oral dose 5.0 mg/kg", "value": 170, "unit": "%"}, {"measurement": "Stereotypy (tolal, for 4 measurements for 4 hours after hypodermal administration of d,l-amphetamine), %", "setting": "white rats; oral dose 10.0 mg/kg", "value": 225, "unit": "%"}, {"measurement": "more active than the known preparation pyrazidol", "setting": "[1]", "value": "2-10 times"}]}
